These results are taken from ChEMBL document CHEMBL3507680, “University of Dundee, Gates Library screen for HepG2 cell viability”.

The nature of the data set: Human HepG2 cell viability assay in 384 well format. Set-up: dose 125 nL, time 70.5 hour; cytotoxicity at 70.5 h: concentration not given beside the values. The following applies: HepG2 cells, read-out: Inhibition. It counts as toxicity, cell-based.
Consider `COCCNC(=O)[C@H]1C[C@@H]2CCN(Cc3ccoc3)C[C@H]2O1`, for which the cytotoxicity at 70.5 h was -15.5%. For `Cc1ccc(O)c(CNCC2CCCN2c2cccnn2)n1` (centres undefined), the cytotoxicity at 70.5 h was -11.5%. As to `CN(C)c1cc(C(=O)N2CCCCC2CNS(C)(=O)=O)ccn1` (centres undefined), the cytotoxicity at 70.5 h amounted to 0.448%. Take `CCC(c1nc(CC(C)C)nn1-c1ccccn1)n1cccn1` (centres undefined): the cytotoxicity at 70.5 h was -12.3%. As for `CC(C(=O)N1CCN(c2ccc(F)cc2)CC1)n1ccnc1` (centres undefined), the cytotoxicity at 70.5 h is -3.73%.

As to `O=C(c1ccccn1)N1CCN(C(c2ccccc2)C(F)(F)F)CC1` (centres undefined), the cytotoxicity at 70.5 h turned out to be 11.9%.

`CC(C)(C)c1noc(CNc2ccccc2N2CCC(O)CC2)n1`: the cytotoxicity at 70.5 h was -8.28%. On to `CN1CCC(N(C)C[C@H]2CC[C@@H](Cc3cccc(CO)c3)O2)CC1`, for which the cytotoxicity at 70.5 h is 5.66%. Then `CCc1ccc(CN2Cc3nccn3CC(Cn3cncn3)C2)o1` (centres undefined), with 2.9%. The same measure for `O=C(NC1CCCCC1)c1cc(Br)cnc1N1CCCCC1`: -4.56%. For `COc1ccc(C(=O)N(C)Cc2cc(C)on2)c(F)c1`, the cytotoxicity at 70.5 h was -10.6%. On to `Cc1cccc(NC(=O)c2cccc(OCc3nnnn3C)c2)n1`, for which the cytotoxicity at 70.5 h is 18.7%. As for `Cc1cccc(-c2cc(-c3c(C)nn(CCO)c3C)c(C#N)c(N)n2)c1`, the cytotoxicity at 70.5 h is -11.4%. For the compound `CCc1cn[nH]c1C1CCCN(C(=O)c2noc(C)c2COC)C1` (centres undefined), the cytotoxicity at 70.5 h was -10.2%.

For the compound `CCOc1ccc(NC(=O)C2OC(c3cccs3)=NN2C(C)=O)cc1` (centres undefined), the cytotoxicity at 70.5 h came out at 11.5%.

On to `Cc1cc(C)n(CC2CCCN2C(=O)c2cccnc2N(C)C)n1` (centres undefined), for which the cytotoxicity at 70.5 h is -8.62%. `Cc1cc(C)n2cc(CN3CCCC3Cn3nc(C)nc3C)nc2n1` (centres undefined): the cytotoxicity at 70.5 h is -6.16%. Then `O=C(NCCO)c1ccn(-c2ccc3ccccn23)n1`, with 25.4%.

On to `Cn1cc(CN2CCCN(C(=O)c3cn4ccccc4n3)CC2)cn1`, for which the cytotoxicity at 70.5 h is -0.261%. As for `CC(C)(O)CNC(=O)c1sccc1Br`, the cytotoxicity at 70.5 h was 0.0507%. As to `Cc1cccc(CNC(=O)Nc2cc(C(F)(F)F)c[nH]c2=O)n1`, the cytotoxicity at 70.5 h was -6.24%. With `Nc1cc2c(nn1)CCN(C(=O)CCCC1CCCCC1)C2`, the cytotoxicity at 70.5 h was -13.1%. Turning to `COc1cc(C(=O)Nc2nc(C)no2)ccc1OC1CCCC1`, the cytotoxicity at 70.5 h is -4.68%.

Consider `Cn1cc(CN2CCC(F)(F)C3(CCN(c4ccccn4)C3)C2)cn1` (centres undefined), for which the cytotoxicity at 70.5 h was -14.4%. For the compound `Cc1cc(Br)c(O)c(-c2nc(N3CCCCC3)sc2C)c1`, the cytotoxicity at 70.5 h is 13.1%. As for `CC(=O)NC1CCN(c2cnc(C3CCNCC3)cn2)CC1`, the cytotoxicity at 70.5 h is -3.96%.

For the compound `CN(C)C(=O)CN1C(=O)C[C@@H]2[C@@H]1CCN2Cc1cccc(C#N)c1`, the cytotoxicity at 70.5 h turned out to be 6.8%.

`Cc1ccc(CN2CC[C@@H](O)[C@@H]2Cc2cnn(C)c2)o1`: the cytotoxicity at 70.5 h is -10.4%.

With `O=C(C1CC=CC1)N1C[C@@H](OCc2cccnc2)[C@H]2OCCC[C@H]21`, the cytotoxicity at 70.5 h is 11.2%. In the case of `O=C(NCc1ccccc1-n1cccn1)C1CC2(CCNCC2)CN1` (centres undefined), the cytotoxicity at 70.5 h is -1.74%.

For `O=C(N[C@H]1CN2CCC1CC2)c1cc(Cn2cnc3ccccc32)[nH]n1`, the cytotoxicity at 70.5 h is -5.02%. Regarding `O=S(=O)(NCc1ccc(S(=O)(=O)N2CCCC2)s1)c1ccc(F)cc1Cl`, the cytotoxicity at 70.5 h was -1.37%. Take `CCNC(=O)[C@@H]1C[C@H](N)CN1C(=O)CCc1ccccc1Cl`: the cytotoxicity at 70.5 h was -4.67%. As for `COCCN1CCC2(CC1)CN(Cc1cccc(C)n1)C(=O)CO2`, the cytotoxicity at 70.5 h was 0.221%.

As for `COc1ccc(CC(=O)NCCn2nc3ccccn3c2=O)cc1`, the cytotoxicity at 70.5 h was 12.9%. The same measure for `NC(=O)c1ccccc1Oc1cccc(C2CCCNC2)n1` (centres undefined): -4.29%; for `CC(O)CN(Cc1cccc(C(=O)N(C)C)c1)c1ccccc1` (centres undefined): -3.2%; for `CN1CCCN(C(=O)NCc2cc(Br)cs2)CC1`: -1.99%. Consider `O=S(=O)(Cc1ccccc1)NC[C@H]1Cn2ccnc2CO1`, for which the cytotoxicity at 70.5 h was 10.3%. Consider `O=C(O)c1nnn(-c2cccc(C(F)(F)F)c2)c1-c1ccncc1`, for which the cytotoxicity at 70.5 h was 5.64%. Regarding `Cn1cccc1C(O)CNC(=O)COc1ccccc1F` (centres undefined), the cytotoxicity at 70.5 h is -8.88%. On to `c1ccc(O[C@@H]2CO[C@@]3(CCCN(CC4CCOCC4)C3)C2)nc1`, for which the cytotoxicity at 70.5 h is -8.71%. As for `Cc1noc(CSc2ccc(C(F)(F)F)cn2)n1`, the cytotoxicity at 70.5 h was -6.64%. As for `Cc1nc2sccn2c1CNc1ccc(C(=O)O)cc1`, the cytotoxicity at 70.5 h is -7.07%.

As for `CC(=O)NC1CCN(c2nc(N(C)C)nc3c2CCN(C(C)=O)C3)CC1`, the cytotoxicity at 70.5 h is -7.29%. As for `Cc1cc(CN(C)C(=O)NC(C)Cc2ccco2)no1` (centres undefined), the cytotoxicity at 70.5 h was -3.4%. As to `Cc1c(C(=O)O)sc2nc(C(F)(F)F)ccc12`, the cytotoxicity at 70.5 h is -18.5%. Take `COC[C@@]12CCC[C@@H]1CN(C(=O)Cc1ccco1)C2`: the cytotoxicity at 70.5 h is -5.39%. For the compound `O=C(c1ccc(Cl)cc1)N1CCn2c(nn(-c3ccc(Cl)cc3)c2=O)C1`, the cytotoxicity at 70.5 h was -1.63%. `CS(=O)(=O)NCC1(c2ccccc2Br)CC1`: the cytotoxicity at 70.5 h is -5.81%. On to `CN(C)Cc1cnc2n1CCN(C(=O)NCc1ccccc1)CC2`, for which the cytotoxicity at 70.5 h turned out to be 4.32%. Regarding `Cn1nc2c(cc1=O)CN(CC(=O)Nc1nccs1)CC2`, the cytotoxicity at 70.5 h is -3.23%. Then `O=C(C1CCC1)N1CCC2(CCN(Cc3cccc(F)c3)CC2)CC1`, with 18.6%. Regarding `COCC(=O)NCCCn1ncc2c(C)cccc21`, the cytotoxicity at 70.5 h is -5.2%.

Turning to `CCC(=O)N1CCC2(CC1)C(=O)N(C)CCN2Cc1csc(C)n1`, the cytotoxicity at 70.5 h is -4.08%. Consider `CCOc1ccc(Cl)c(C(=O)N2CCCC(c3ccn[nH]3)C2)n1` (centres undefined), for which the cytotoxicity at 70.5 h was -2.59%. As to `COc1ccnc(N2CCCN(Cc3ncc(C(C)C)o3)CC2)n1`, the cytotoxicity at 70.5 h was -4.8%. Then `c1cc(-c2ccc(CN3CCCC4(CCNC4)C3)s2)[nH]n1` (centres undefined), with 1.71%; and `COC(=O)c1cccn1C1CCN(C(=O)c2ccc(C)cc2O)CC1`, with -8.93%.

On to `CCn1ncc2c1C(COC)N(C(=O)c1ccc3c(c1)OCO3)CC2` (centres undefined), for which the cytotoxicity at 70.5 h was -5.04%. Regarding `COc1ccc(-c2cc(C3(O)CCN(C)CC3)on2)cc1`, the cytotoxicity at 70.5 h was -0.517%. Take `Cc1csc(NC(=O)c2cnc(C3CCNCC3)cn2)n1`: the cytotoxicity at 70.5 h was -11.9%. Consider `O=C(NCc1sc2ccccc2c1Cl)c1cc2n(n1)CCNC2`, for which the cytotoxicity at 70.5 h turned out to be 18.3%. In the case of `CCN(Cc1nc2c(cnn2C)c(=O)[nH]1)c1cc(C)ccc1C`, the cytotoxicity at 70.5 h is -15.9%. As for `Cc1ccc(C(=O)Nc2ccc(N(C)C)cn2)n1C`, the cytotoxicity at 70.5 h stood at 7.03%. Consider `CC(C)CCNC(=O)c1csc(NC2CC2)n1`, for which the cytotoxicity at 70.5 h is -9.92%. The same measure for `Nc1nccc(NCc2cc3n(n2)CCCN(C2CCCCC2)C3)n1`: -1.68%; for `CC(Cn1cccn1)NCc1csc(-c2ccccc2F)n1` (centres undefined): -15.5%. Take `CCc1ccc(CNC(=O)N2CCN(Cc3cc(C)no3)CC2)s1`: the cytotoxicity at 70.5 h is 19.6%. On to `COc1ccc(CNC(=O)Nc2ccc(N3CCCC3)nc2)cc1O`, for which the cytotoxicity at 70.5 h was -2.31%. Take `Cn1cnc2c1CCN(CCCOc1ccc(C#N)cc1)C2`: the cytotoxicity at 70.5 h was -10.6%. Then `O=C(NCCSCc1ccc(Br)s1)C1CCCN(C(=O)c2cccs2)C1` (centres undefined), with -8.75%; and `Cc1noc(C)c1CC(=O)N1CCC(Nc2cccnn2)CC1`, with 20.6%; and `Cc1ccccc1-n1cc(-c2ccnc(NC(CO)C(C)C)n2)cn1` (centres undefined), with -7.36%.

In the case of `COc1ccccc1CNC(C)c1cnc2cc(C)nn2c1C` (centres undefined), the cytotoxicity at 70.5 h was -1.5%. The same measure for `O=C(c1cccnc1)N1CCC2(CC1)CCN(Cc1ccccn1)C2=O`: -9.02%; for `CC(=O)N(Cc1ncc(C)o1)C1CCN(Cc2ccon2)C1` (centres undefined): 22.2%. In the case of `O=C(CCn1ccc2cc(Br)ccc21)NC[C@@H]1CCCN2CCCC[C@H]12`, the cytotoxicity at 70.5 h is 19.3%. With `CCc1cc(NCCC(F)(F)F)nc(N2CCOCC2)n1`, the cytotoxicity at 70.5 h was -7.87%. `COc1cccc2c1OCC(CNC(=O)CN(C)C1CCCC1)C2` (centres undefined): the cytotoxicity at 70.5 h was 6.99%. Then `CC(C)N1CCC(Cc2cc(-c3cccc(C(=O)O)c3)ncn2)CC1`, with -4.63%; and `CCNC(=O)N1CCC(NC(=O)NCCCc2cccc(F)c2)C1` (centres undefined), with -4.92%. With `Nc1nccnc1C(=O)N(Cc1ccco1)CC1CCCO1` (centres undefined), the cytotoxicity at 70.5 h was -2.09%. Then `Cc1ccccc1Cn1cnc2oc(C)c(C(=O)O)c2c1=O`, with -11.3%; and `O=C(c1cnc(COc2ccccc2)nc1O)N1CCC(F)(F)CC1`, with -5.82%.

In the case of `COC(=O)CN(C(=O)c1ccc(Cl)cn1)c1cccc(F)c1`, the cytotoxicity at 70.5 h is -0.717%. Take `CC(C)C(=O)N1CCCC2(C1)CN(c1nncs1)CCO2` (centres undefined): the cytotoxicity at 70.5 h was -2.65%.

For the compound `Cc1c(C(=O)NS(=O)(=O)c2ccsc2)cnn1CC(C)C`, the cytotoxicity at 70.5 h came out at 4.87%. On to `CCn1nc(C(C)C)cc1C(=O)N1CCOc2ccc(OC)cc21`, for which the cytotoxicity at 70.5 h was -5.2%. Regarding `CS(=O)(=O)CCn1ccc(NC(=O)Cc2ccccc2F)n1`, the cytotoxicity at 70.5 h turned out to be 3.54%. Take `CCN1CC2(CCCCN2C(=O)c2ccsc2)CC1=O` (centres undefined): the cytotoxicity at 70.5 h came out at 2.62%. `Cc1cc(NC(=O)NCC(O)c2ccc(F)cc2)n(C)n1` (centres undefined): the cytotoxicity at 70.5 h was -12.7%. Then `Cc1ccc([C@@H]2CN(C(=O)c3ccsc3)C[C@H]2NC(=O)C2CC2)cc1`, with -8.66%; and `CCS(=O)(=O)N1CCCn2cnc(COc3cccnc3)c2C1`, with -2.04%; and `CC(=O)N(Cc1ncc(C(C)C)o1)C1CCN(CCn2cncn2)C1` (centres undefined), with -3.83%. Turning to `Cc1ccc(NC(=O)N(C)C)c(C(=O)OCC(=O)NC2CCCC2)c1`, the cytotoxicity at 70.5 h is -0.892%.

`Cc1cccc(COC[C@]23COC[C@H]2CN(c2ncccn2)C3)n1`: the cytotoxicity at 70.5 h is -10.2%. As to `NS(=O)(=O)N1CCc2ccc(NC(=O)CCc3ccncc3)cc21`, the cytotoxicity at 70.5 h was 22.2%.

As to `O=C(CS(=O)(=O)c1ccccn1)NC1CCCc2ccccc21` (centres undefined), the cytotoxicity at 70.5 h was found to be 1%.
